23 compounds from patent publication US20130261077A1 (priority 2012, published 2013) can be followed below.

T1 sequence (P08191 22-177): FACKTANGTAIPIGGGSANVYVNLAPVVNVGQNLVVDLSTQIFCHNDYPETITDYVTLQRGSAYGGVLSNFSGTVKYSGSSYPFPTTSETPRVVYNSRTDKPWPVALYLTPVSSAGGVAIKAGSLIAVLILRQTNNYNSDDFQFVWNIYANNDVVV

The test addresses T1, FimH-CRD (Escherichia coli, UniProt P08191).
T1 construct: The first 177 amino acids of the FimH protein; thrombin tag (printed as 'fusion protein with thrombin') (cleaved yes); made in house; host or cells: bacteria (pET21b plasmid)
Briefly: Competitive binding assay by fluorescence polarization, assay 2 (compounds prepared by robotics, plates frozen and thawed). As to the method: The first 177 amino acids of the FimH protein were expressed as a fusion protein with thrombin in a pET21b plasmid in bacteria. This FimH protein sequence contains the carbohydrate recognition domain (CRD) and shall be termed FimH-CRD. Following bacterial expression of the protein, the FimH-CRD protein was purified to homogeneity and the thrombin tag removed by protease cleavage. A competitive binding assay by fluorescence polarization was performed using 5 nM of the Alexa 647 mannoside probe and 60 nM of the FimH-CRD. The samples are assayed in a low volume 384 well microtiter plate in a final volume of 20 μl. The final assay buffer conditions are the following, 50 mM Tris-Cl, ph 7.0, 100 mM NaCl, 1 mM EDTA, 5 mM β-mercaptoethanol, 0.05% BSA and 2.5% DMSO. Two assays are performed for FimH, termed assay 1 or assay 2. The assay conditions are the same for both assays except the following: assay 1 has compounds prepared by manual dilution in a serial dilution factor with 12-point dose response while assay 2 has compounds prepared by a robotics system also through a serial dilution factor (12 point dose response) and initially prepared in duplicate in 384 well-Corning polypropylene round bottom plates. The assay 2 plates have compound which is then frozen and must be thawed prior to use. Initially the Alexa 647 probe and the FimH-CRD are added to the assay buffer and then 0.5 μl of test compound (assay 1 or 2) between 0.4 nM to 75 μM final concentration are added (12 point titration with 3-fold serial dilution). Control wells for the Alexa 647 probe are prepared with the same conditions except for the addition of the FimH-CRD protein. Plates are then incubated for 5 hrs at room temperature in the dark and under humid conditions to prevent drying. Plates are read using the SpectraMax Paradigm multi-mode plate reader and the appropriate fluorescent polarization detection cartridge (Alexa-647).
Alexa 647 mannoside probe is prepared using the similar procedure reported for FAM mannoside (Han, Z. et. al., 2010, J. Med. Chem., 53, 4779) and is described in the scheme below.
To a blue colored stirred solution of (2S,3S,4S,5S,6R)-2-(4-aminobutoxy)-6-(hydroxymethyl)tetrahydropyran-3,4,5-triol (2.21 mg, 0.009 mmol) and the (2E)-2-[(2E,4E)-5-[3,3-dimethyl-5-sulfonato-1-(3-sulfonatopropyl)indol-1-ium-2-yl]penta-2,4-dienylidene]-3-[6-(2,5-dioxopyrrolidin-1-yl)oxy-6-oxo-hexyl]-3-methyl-1-(3-sulfonatopropyl)indoline-5-sulfonate (Potassium Ion (3)) (4.9 mg, 0.0044 mmol) in DMF (44 μL) is added Et3N (5.4 mg, 7.0 μL, 0.053 mmol) at RT. The solution is stirred at room temperature over night, concentrated, dissolved in water and purified on 12 g C-18 silica gel cartridge on Isolera system using acetonitrile in water (0 to 40%, 10 CV) and followed by lyophilization to afford Alexa 647 mannoside probe (3.3 mg, 34%) as deep blue solid.
The Kd values of the compounds are determined from dose response curves using twelve concentrations per compound in duplicate. Curves are fitted to data points using Fluorescence Polarization competitive displacement analysis, and Kds are interpolated from the resulting curves using GraphPad Prism software, version […] (GraphPad software Inc., San Diego, Calif., USA).
Background: Polarisation of emitted light reports the rotation of a fluorescent probe.
Turning to `COC(=O)c1cccc(C#Cc2ccc([C@H]3O[C@H](CO)[C@@H](O)[C@H](O)[C@@H]3O)cc2)c1` [Compound 88, Methyl 3-[2-[4-[(2R,3S,4R,5S,6R)-3,4,5-trihydroxy-6-(hydroxymethyl)tetrahydropyran-2-yl]phenyl]ethynyl]benzoate], the Kd turned out to be 11.8 ± 7.9 nM.
For `COC(=O)c1ccc(C#Cc2ccc([C@H]3O[C@H](CO)[C@@H](O)[C@H](O)[C@@H]3O)cc2)cc1` [Compound 89, Methyl 4-[2-[4-[(2R,3S,4R,5S,6R)-3,4,5-trihydroxy-6-(hydroxymethyl)tetrahydropyran-2-yl]phenyl]ethynyl]benzoate] the value was 14.5 ± 2.2 nM; for `CNC(=O)c1cc(C#Cc2cccc([C@H]3O[C@H](CO)[C@@H](O)[C@H](O)[C@@H]3O)c2C)cc(C(=O)NC)c1` [Compound 90, N1,N3-Dimethyl-5-[2-[2-methyl-3-[(2R,3S,4R,5S,6R)-3,4,5-trihydroxy-6-(hydroxymethyl)tetrahydropyran-2-yl]phenyl]ethynyl]benzene-1,3-dicarboxamide], 20.3 ± 2.2 nM.
For `OC[C@H]1O[C@H](c2cccc(C#Cc3ccccc3)c2)[C@@H](O)[C@@H](O)[C@@H]1O` [Compound 91, (2R,3S,4R,5S,6R)-2-(Hydroxymethyl)-6-[3-(2-phenylethynyl)phenyl]tetrahydropyran-3,4,5-triol] the value was 23.6 ± 8.7 nM.
The same measure for `CNC(=O)c1cccc(C#Cc2cccc([C@H]3O[C@H](CO)[C@@H](O)[C@H](O)[C@@H]3O)c2)c1` [Compound 93, N-Methyl-3-[2-[3-[(2R,3S,4R,5S,6R)-3,4,5-trihydroxy-6-(hydroxymethyl)tetrahydropyran-2-yl]phenyl]ethynyl]benzamide]: 7.5 ± 2.5 nM; for `CNC(=O)c1cc(/C=C/Cc2cccc([C@H]3O[C@H](CO)[C@@H](O)[C@H](O)[C@@H]3O)c2)cc(C(=O)NC)c1` [Compound 94, N1,N3-Dimethyl-5-[(E)-3-[3-[(2R,3S,4R,5S,6R)-3,4,5-trihydroxy-6-(hydroxymethyl)tetrahydropyran-2-yl]phenyl]prop-1-enyl]benzene-1,3-dicarboxamide]: 94.4 ± 13 nM.
In turn, `OC[C@H]1O[C@H](c2cccc(C/C=C/c3cc(Cl)cc(Cl)c3)c2)[C@@H](O)[C@@H](O)[C@@H]1O` [Compound 95, (2R,3S,4R,5S,6R)-2-[3-[(E)-3-(3,5-Dichlorophenyl)allyl]phenyl]-6-(hydroxymethyl)tetrahydropyran-3,4,5-triol] yielded a Kd of 34 ± 7.8 nM.
As for `OC[C@H]1O[C@H](c2cccc(C/C=C/c3ccccc3)c2)[C@@H](O)[C@@H](O)[C@@H]1O` [Compound 96, (2R,3S,4R,5S,6R)-2-[3-[(E)-Cinnamyl]phenyl]-6-(hydroxymethyl)tetrahydropyran-3,4,5-triol], the Kd was 29 ± 2.3 nM.
In turn, `CNC(=O)c1cc(CCCc2cccc([C@H]3O[C@H](CO)[C@@H](O)[C@H](O)[C@@H]3O)c2)cc(C(=O)NC)c1` [Compound 97, N1,N3-Dimethyl-5-[3-[3-[(2R,3S,4R,5S,6R)-3,4,5-trihydroxy-6-(hydroxymethyl)tetrahydropyran-2-yl]phenyl]propyl]benzene-1,3-dicarboxamide] yielded a Kd of 31.6 ± 17.5 nM.
In turn, `OC[C@H]1O[C@H](c2cccc(CCCc3cc(Cl)cc(Cl)c3)c2)[C@@H](O)[C@@H](O)[C@@H]1O` [Compound 98, (2R,3S,4R,5S,6R)-2-[3-[3-(3,5-Dichlorophenyl)propyl]phenyl]-6-(hydroxymethyl)tetrahydropyran-3,4,5-triol] came in with a dissociation constant (Kd) of 27.8 ± 2.1 nM.
For `OC[C@H]1O[C@H](c2cccc(CCCc3ccccc3)c2)[C@@H](O)[C@@H](O)[C@@H]1O` [Compound 99] the value was 26.4 ± 1.1 nM; for `COC(=O)c1ccc(CCc2ccc([C@H]3O[C@H](CO)[C@@H](O)[C@H](O)[C@@H]3O)cc2)cc1` [Compound 100, Methyl 4-[2-[4-[(2R,3S,4R,5S,6R)-3,4,5-trihydroxy-6-(hydroxymethyl)tetrahydropyran-2-yl]phenyl]ethyl]benzoate], 12 ± 3.1 nM.
For `COC(=O)c1cccc(CCc2cccc([C@H]3O[C@H](CO)[C@@H](O)[C@H](O)[C@@H]3O)c2)c1` [Compound 101, Methyl 3-[2-[3-[(2R,3S,4R,5S,6R)-3,4,5-trihydroxy-6-(hydroxymethyl)tetrahydropyran-2-yl]phenyl]ethyl]benzoate], binding was put at a Kd of 12.9 ± 9.7 nM.
The same measure for `OC[C@H]1O[C@H](c2cccc(CCc3ccccc3)c2)[C@@H](O)[C@@H](O)[C@@H]1O` [Compound 102, (2R,3S,4R,5S,6R)-2-(Hydroxymethyl)-6-[3-(2-phenylethyl)phenyl]tetrahydropyran-3,4,5-triol]: 22 ± 3.4 nM.
Compound `COC(=O)c1ccc(CCc2cccc([C@H]3O[C@H](CO)[C@@H](O)[C@H](O)[C@@H]3O)c2)cc1` [Compound 103, Methyl 4-[2-[3-[(2R,3S,4R,5S,6R)-3,4,5-trihydroxy-6-(hydroxymethyl)tetrahydropyran-2-yl]phenyl]ethyl]benzoate] showed a dissociation constant Kd of 9.7 ± 4.5 nM.
The same measure for `Cc1nnc(-c2ccc(-c3cccc([C@H]4O[C@H](CO)[C@@H](O)[C@H](O)[C@@H]4O)c3C)cc2)o1` [Compound 104, (2R,3S,4R,5S,6R)-2-(Hydroxymethyl)-6-[2-methyl-3-[4-(5-methyl-1,3,4-oxadiazol-2-yl)phenyl]phenyl]tetrahydropyran-3,4,5-triol]: 8.5 ± 3.1 nM; for `CCc1c(-c2ccc(-c3nnc(C)o3)cc2)cccc1[C@H]1O[C@H](CO)[C@@H](O)[C@H](O)[C@@H]1O` [Compound 105, (2R,3S,4R,5S,6R)-2-[2-Ethyl-3-[4-(5-methyl-1,3,4-oxadiazol-2-yl)phenyl]phenyl]-6-(hydroxymethyl)tetrahydropyran-3,4,5-triol]: 28.1 ± 3.9 nM; for `Cc1nnc(-c2ccc(-c3cccc([C@H]4O[C@H](CO)[C@@H](O)[C@H](O)[C@@H]4O)c3F)cc2)o1` [Compound 106, (2R,3S,4R,5S,6R)-2-[2-Fluoro-3-[4-(5-methyl-1,3,4-oxadiazol-2-yl)phenyl]phenyl]-6-(hydroxymethyl)tetrahydropyran-3,4,5-triol]: 23.4 ± 7.5 nM.
For `COc1cc(-c2nnc(C)o2)ccc1-c1cccc([C@H]2O[C@H](CO)[C@@H](O)[C@H](O)[C@@H]2O)c1C` [Compound 107, (2R,3S,4R,5S,6R)-2-(hydroxymethyl)-6-[3-[2-methoxy-4-(5-methyl-1,3,4-oxadiazol-2-yl)phenyl]-2-methyl-phenyl]tetrahydropyran-3,4,5-triol] the value was 9.8 ± 0.6 nM.
On to `Cc1c(-c2ccc(-c3ccn(C)n3)cc2)cccc1[C@H]1O[C@H](CO)[C@@H](O)[C@H](O)[C@@H]1O` [Compound 108, (2R,3S,4R,5S,6R)-2-(Hydroxymethyl)-6-[2-methyl-3-[4-(1-methylpyrazol-3-yl)phenyl]phenyl]tetrahydropyran-3,4,5-triol], for which the affinity, expressed as Kd, was 7.9 ± 2.9 nM.
The compound `Cc1c(-c2ccc(S(C)(=O)=O)cc2)cccc1[C@H]1O[C@H](CO)[C@@H](O)[C@H](O)[C@@H]1O` [Compound 109, (2R,3S,4R,5S,6R)-2-(Hydroxymethyl)-6-[2-methyl-3-(4-methylsulfonylphenyl)phenyl]tetrahydropyran-3,4,5-triol] had a Kd of 14.4 ± 6.2 nM.
The same measure for `Cc1c(-c2cccc(S(C)(=O)=O)c2)cccc1[C@H]1O[C@H](CO)[C@@H](O)[C@H](O)[C@@H]1O` [Compound 110, (2R,3S,4R,5S,6R)-2-(Hydroxymethyl)-6-[2-methyl-3-(3-methylsulfonylphenyl)phenyl]tetrahydropyran-3,4,5-triol]: 28.9 ± 4.5 nM.
For `CN(C)Cc1nnc(-c2ccc(-c3cccc([C@H]4O[C@H](CO)[C@@H](O)[C@H](O)[C@@H]4O)c3)cc2)o1` [Compound 113, (2R,3S,4R,5S,6R)-2-[3-[4-[5-[(Dimethylamino)methyl]-1,3,4-oxadiazol-2-yl]phenyl]phenyl]-6-(hydroxymethyl)tetrahydropyran-3,4,5-triol] the value was 20.7 ± 4.7 nM.

As usually defined, the Kd is a measure of binding affinity in units of concentration. A lower Kd goes with a tighter complex.
